Experiments:
[1] = system: Staphylococcus aureus LUH14616; assay: Resistance development on repeated exposure (19 passages); assay type: cell-based
Method: Experimental design. Potential resistance to AM-8 was assessed as described by Habets and Brockhurst (2012) (Therapeutic antimicrobial peptides may compromise natural immunity. Biol Lett 8:416-418). Briefly, log phase bacteria (S. aureus LUH 14616) were diluted in RPMI-mod to a concentration of 2×10^6 CFU/ml. Next, 50 μl of this bacterial suspension were mixed with 50 μl of a range of dilutions of AM-8 or—as comparator-rifampicin in v-bottom 96-wells plates. Thereafter, the plates were covered with a plastic seal and incubated for 24 hrs at 37° C. in a shaking incubator (200 rpm). The plates were then centrifuged for 5 min at 2,000 rpm and the growth inhibition was determined. To start the resistance development testing, 100 μl of a mid-log bacterial suspension containing 2×10^6 CFU/ml were mixed with 150 μl of RPMI-mod and 5 μl of this diluted bacterial suspension were applied to v-bottom wells containing a dilution range of AM-8 or antibiotics (various concentrations below and above MIC) in RPMI-mod (RPMI 1640 modified with 20 mM Hepes and L-glutamine and without sodium bicarbonate (Sigma-Aldrich); further referred to as RPMI-mod). After 24 hrs at 37° C. in a shaking incubator (200 rpm) the growth inhibition was determined. 100 μl of the bacterial suspension from the 0.5×MIC wells were mixed with 150 μl of RPMI-mod and 5 μl of the diluted bacterial suspension were used to inoculate a new 96-wells plate containing a dilution series of AM-8 or rifampicin, and these mixtures were then incubated as described above. If resistance developed, the concentration range of AM-8 and/or antibiotic was adjusted accordingly. This was repeated 19 times. Results are expressed as the fold-increase in MIC compared to the MIC at the start of the experiment.

[2] = system: Staphylococcus epidermidis ATCC 35984; assay: MIC assay (growth inhibition of planktonic microorganisms); assay type: cell-based; settings: 24 h at 37° C., MHB-II
Method: (§1) The exact weighed amount was noted and the volume of solvent to reach a 80 mM dilution calculated. Half of the volume was added first, by adding Tween 80 and let stand for 5 minutes. In a second step, the other half of the volume DMSO was added and resuspended to help the dilution process. The closed tube was inverted 5-10 times and then vortexed very thoroughly for at least 30 seconds. If after this procedure crystals were still visible, the tube was placed in a shaker at 37° C. at 150 rpm for at least 30 minutes (it is indicated if the dissolution period was longer than 2 h). […] In case of Bis(4-Chlorophenyl) thiosulfonate, a lower concentrated stock solution of 2 mM needed to be prepared. For that, the required amount of compound was weighed in and 2% v/v Tween80 and 2% v/v DMSO of the end volume of the stock solution was added to the substance. This mix was heated in a water bath set to 40° C. and occasionally shaken. When the whole amount of the substance reached dissolution, the volume was filled up with growth medium until the end volume. This 2 mM stock solution of Bis(4-Chlorophenyl) thiosulfonate was used in the MIC plate and diluted two-fold, resulting in a testing range of Bis(4-Chlorophenyl) thiosulfonate from 1 mM to 0.002 mM.
(§2) The microorganisms as indicated in Table 4 were used to inoculate a tryptic soy agar (TSA) plate and incubated overnight at 37° C. After incubation 3-5 well-isolated colonies with the same morphology were selected from the TSA plate and resuspended in 2 mL 0.9% saline solution with 3-6 glass beads and vortexed. The optical density at 600 nm (OD600) of the bacterial suspension was measured with a spectrophotometer (Evolution™ 201/220 UV-Visible Spectrophotometer, Thermo Fisher Scientific) and diluted to an OD600 of 0.0008, which resembles 10^6 CFU/mL.
(§3) The MIC assay was performed in a flat-bottom 96-microtiter plate. 50 μL of MHB-II was added into columns 2-11, and 100 μL to column 12 for sterility control. 100 μL of the 8 mM test compound solution (method 1) was added to column 1. A two-fold dilution series of the solution in MHB-II was achieved by resuspending 50 μL of the 8 mM solution from column 1 to column 2. This step was repeated until column 10. The respective concentration of Tween 80 and DMSO in column 1 was 2.5%, which is two-fold diluted throughout the plate. 50 μL of the bacterial suspension was added to column 1-11. The microtiter plates were sealed with adhesive polyethylene film for sealing microplates (Diversified Biotech) and incubated for 24 h at 37° C. After incubation the OD was measured at 600 nm with the Varioskan (Thermo Fisher Scientific). The minimal concentration which causes reduction of final OD600 of the bacterial culture by 50% (MIC50) and by 90% (MIC90) was calculated after normalization of the obtained OD values to the growth control in column 11. This assay was repeated three times in three independent experiments.

[3] = system: Pseudomonas aeruginosa ATCC 27853; assay: as above; assay type: cell-based; settings: 24 h at 37° C., MHB-II
Method: as §1, §2, §3
Hereafter, the stock solutions of the compounds were used in three repetitions in a minimal inhibitory concentration (MIC) assay at a 2-fold dilution range with various bacteria from the gram-positive and gram-negative group and a yeast, Candida albicans. The concentrations that show only less than 10% growth after 24 h were considered the MIC90-values, whereas the concentrations that show 50% growth after 24 h when compared to the bacterial growth control were considered the MIC50-values. Escherichia coli and Staphylococcus aureus were used as representatives for a gram-negative bacteria and gram-positive bacteria, respectively. Furthermore, the yeast C. albicans was also tested.
In an Eppendorf tube between 10-20 mg of the test compound was weighed. Hereafter, the required amount of Tween 80 was added, followed by the amount DMSO. After vigorous shaking, the dissolved and transparent dilutions were diluted 10 times with Mueller Hinton Broth (MHB) for the MIC assay. […]

[4] = system: Staphylococcus epidermis ATCC 35984 biofilm; assay: MBEC assay (48 h biofilm, CFU log reduction); assay type: cell-based, Staphylococcus epidermidis; settings: 20 h treatment, 0.125-1 mM tested
Method: (§4) For the MBEC assay (method 1.3) the solutions need to be diluted to a final concentration of 2 mM in 0.9% saline solution and then further diluted to 1 mM, 0.5 mM, 0.25 mM and 0.125 mM in saline. Those dilutions were added as treatment to the 96 well plates with the grown biofilm (see method 3) (0.5 mL needed for one strain). The dilution must stay transparent.
(§5) Frozen aliquots of Staphylococcus epidermis ATCC 35984 and Pseudomonas aeruginosa ATCC 27853 were used to inoculate 20 mL of Tryptic Soy Broth (TSB) in a 100 mL Erlenmeyer flask at 37° C. and 150 rpm and incubated overnight (Infors). The OD600 of the overnight culture was measured with a spectrophotometer (Evolution™ 201/220 UV-Visible Spectrophotometer, Thermo Fisher Scientific) and diluted to an ( ) 600 of 0.2, which resembles 10^8 CFU/mL. The cell suspension of OD600=0.2 was seeded into a U-bottom-shaped 96 well plates by pipetting 100 μL per well in column 1-11, column 12 was filled with 100 μL medium as sterility control. The 96 well plates were sealed with adhesive polyethylene film for sealing microplates and incubated for 48 h at 37° C. at static conditions. After the biofilm growth phase, 100 μL of treatment solutions (method 1) were added to the vials resulting in treatment concentrations of 1 mM, 0.5 mM, 0.25 mM and 0.125 mM and with the respective concentration of Tween 80 and DMSO each at 0.63%, 0.32%, 0.16% and 0.08%. The same concentration was applied to four different wells of the same bacterial strain, resulting in four replicates for each concentration and strain. The treatment was incubated for 20 h at 37° C. at static conditions. After the treatment the supernatant was carefully removed and the well with the biofilm washed carefully for one time with 200 μL 0.9% saline solution. 200 μL saline solution was added and the biofilm was resuspended thoroughly. When fully homogenized then 20 μl, was used for the first dilution in 180 μL 0.9% saline solution, which was prepared in a second plate. This dilution was continued until dilution step 10E-5 and 100 μL of the 10E-4 and 10E-5 dilution plated on a TSA plate. The TSA plates were incubated at 37° C. for 24 h. The colonies on the plates were enumerated, the colony forming units per ml, of the dispensed biofilm and averages thereof and the log reduction in comparison with the untreated sample from the same wells plate calculated. Reduction of colony forming units goes hand in hand with the thickness of the biofilm and thus with the number bacteria that are present in the biofilm. Therefore, a significant reduction of colony forming units in the biofilm was defined at the value of log reduction >1 or more. This assay was repeated two times in two independent experiments)

[5] = system: Pseudomonas aeruginosa ATCC 27853 biofilm; assay: MBEC assay (48 h biofilm, CFU log reduction); assay type: cell-based; settings: 20 h treatment, 0.125-1 mM tested
Method: as §4, §5

[6] = reduction of final OD600 by 50%
[7] = reduction of final OD600 by 90%

## CO[C@H]1/C=C/O[C@@]2(C)Oc3c(C)c(O)c4c(O)c(c(/C=N/N5CCN(C)CC5)c(O)c4c3C2=O)NC(=O)/C(C)=C\C=C\[C@H](C)[C@H](O)[C@@H](C)[C@@H](O)[C@@H](C)[C@H](OC(C)=O)[C@@H]1C [rifampicin, reference compound]
[1]; after passage 10
  fold-increase in MIC compared to the MIC at the start: 146 fold
[1]; after the last passage
  fold-increase in MIC compared to the MIC at the start: > 292 fold
[1]; at passages 4-5
  fold-increase in MIC compared to the MIC at the start: 10 fold

## CC(C)SSC(C)C [Di-isopropyl disulfide, reference compound]
[2]; Staphylococcus epidermidis, ATCC35984, reduction of final OD600 by 50%, read-out: S. epidermidis MIC50
  MIC50: > 4000 µM
[2]; Staphylococcus epidermidis, ATCC35984, reduction of final OD600 by 90%, read-out: S. epidermidis MIC90
  MIC90: > 4000 µM
[3]; Pseudomonas aeruginosa, ATCC27853, 24 h, reduction of final OD600 by 50%, read-out: P. aeruginosa MIC50
  MIC50: > 4000 µM
[3]; Pseudomonas aeruginosa, ATCC27853, reduction of final OD600 by 90%, read-out: P. aeruginosa MIC90
  MIC90: > 4000 µM
[4]
  S. epidermidis MBEC mM with log reduction ≥1: >1 mM
[5]
  P. aeruginosa MBEC mM with log reduction ≥1: >1 mM

## [O-][S+](Sc1ccc(Cl)cc1)c1ccc(Cl)cc1 (stereo not drawn) [Bis (4-chlorophenyl) thiosulfinate, Bis(4-chlorophenyl) thiosulfinate]
[2]; [6]
  S. epidermidis MIC50: 20 µM
[2]; [7]
  S. epidermidis MIC90: 20 µM
[3]; [6]
  P. aeruginosa MIC50: 20 µM
[3]; [7]
  P. aeruginosa MIC90: 20 µM
[4]
  S. epidermidis MBEC mM with log reduction ≥1: >1 mM
[5]
  P. aeruginosa MBEC mM with log reduction ≥1: >1 mM

Reference: US20260083126A1, “ANTIMICROBIAL COMPOSITIONS” (AHV International B.V., priority 2022, published 2026)
